According to ChEMBL document CHEMBL5335870, “Discovery of Hepatitis B Virus Surface Antigen Suppressor GS-8873” (ACS Med Chem Lett, 2024):

Tests used:
[1] = Volume of distribution at steady state in Beagle dog at 0.5 mg/kg, iv; assay type: ADME, organism-based, Canis lupus familiaris; settings: in vivo, read-out: Vdss
[2] = AUC (0 to infinity) Cynomolgus monkey at 0.4 mg/kg, iv; assay type: ADME, organism-based, Macaca fascicularis; parameters: dose 0.4 mg/kg, route iv; settings: in vivo
[3] = Half life in Cynomolgus monkey at 0.4 mg/kg, iv; assay type: ADME, organism-based, Macaca fascicularis; settings: in vivo
[4] = Oral bioavailability in Beagle dog at 0.5 mg/kg; assay type: ADME, organism-based, Canis lupus familiaris; settings: in vivo
[5] = Volume of distribution at steady state in Cynomolgus monkey at 0.4 mg/kg, iv; assay type: ADME, organism-based, Macaca fascicularis; settings: in vivo, read-out: Vdss
[6] = Clearance in Cynomolgus monkey at 0.4 mg/kg, iv; assay type: ADME, organism-based, Macaca fascicularis; settings: in vivo
[7] = Half life in Beagle dog at 0.5 mg/kg, iv; assay type: ADME, organism-based, Canis lupus familiaris; settings: in vivo
[8] = Volume of distribution at steady state in Rhesus monkey at 0.5 mg/kg, iv; assay type: ADME, organism-based, Macaca mulatta; settings: in vivo, read-out: Vdss
[9] = AUC (0 to infinity) Rhesus monkey at 0.5 mg/kg, iv; assay type: ADME, organism-based, Macaca mulatta; parameters: dose 0.5 mg/kg, route iv; settings: in vivo
[10] = Clearance in Rhesus monkey at 0.5 mg/kg, iv; assay type: ADME, organism-based, Macaca mulatta; settings: in vivo
[11] = Oral bioavailability in Sprague-Dawley rat at 3 mg/kg; assay type: ADME, organism-based; settings: in vivo
[12] = Oral bioavailability in Cynomolgus monkey at 0.5 mg/kg; assay type: ADME, organism-based, Macaca fascicularis; settings: in vivo
[13] = AUC (0 to infinity) Beagle dog at 0.5 mg/kg, iv; assay type: ADME, organism-based, Canis lupus familiaris; parameters: dose 0.5 mg/kg, route iv; settings: in vivo
Hepatitis B virus = assay: Antiviral activity against genotype D HBV infected in sodium taurocholate co-transporting polypeptide receptor-expressing stable HepG2 cell line assessed as suppression of HBsAg level incubated for 5 days by multiplex chemiluminescent MSD assay; assay type: functional, organism-based; settings: HepG2, 120 h
[14] = Clearance in Sprague-Dawley rat at 1 mg/kg, iv; assay type: ADME, organism-based; settings: in vivo
[15] = Clearance in Beagle dog at 0.5 mg/kg, iv; assay type: ADME, organism-based, Canis lupus familiaris; settings: in vivo
[16] = Half life in Rhesus monkey at 0.5 mg/kg, iv; assay type: ADME, organism-based, Macaca mulatta; settings: in vivo
[17] = Volume of distribution at steady state in Sprague-Dawley rat at 1 mg/kg, iv; assay type: ADME, organism-based; settings: in vivo, read-out: Vdss
[18] = Half life in Sprague-Dawley rat at 1 mg/kg, iv; assay type: ADME, organism-based; settings: in vivo
[19] = Clearance in Sprague-Dawley rat at […], iv measured after 24 hrs by LC/MS/MS method; assay type: ADME, organism-based; settings: in vivo
[20] = MRT in Sprague-Dawley rat at 1 mg/kg, iv; assay type: ADME, organism-based; settings: in vivo
[21] = MRT in Beagle dog at 0.5 mg/kg, iv; assay type: ADME, organism-based, Canis lupus familiaris; settings: in vivo
[22] = Oral bioavailability in Sprague-Dawley rat after 24 hrs by LC/MS/MS method; assay type: ADME, organism-based; settings: in vivo
[23] = MRT in Cynomolgus monkey at 0.4 mg/kg, iv; assay type: ADME, organism-based, Macaca fascicularis; settings: in vivo
[24] = AUC (0 to infinity) Sprague-Dawley rat at 1 mg/kg, iv; assay type: ADME, organism-based; parameters: dose 1 mg/kg, route iv; settings: in vivo

Vd [1]: 0.85 L/kg | AUC(0-inf) [2]: 5.93 µM·h | half-life [3]: 6.7 h | bioavailability [4]: 94% | Vd [5]: 1.23 L/kg | clearance [6]: 2.5 mL/min/kg | half-life [7]: 5.1 h | Vd [8]: 1.14 L/kg | AUC(0-inf) [9]: 6.41 µM·h | clearance [10]: 3 mL/min/kg | bioavailability [11]: 91% | bioavailability [12]: 91% | AUC(0-inf) [13]: 4.91 µM·h | EC50 (Hepatitis B virus): 4 nM | clearance [14]: 4.5 mL/min/kg | clearance [15]: 4 mL/min/kg | half-life [16]: 5.5 h | Vd [17]: 0.69 L/kg | half-life [18]: 2.5 h | clearance [19]: 4.5 mL/min/kg | MRT [20]: 2.6 h | MRT [21]: 3.6 h | bioavailability [22]: 91% | MRT [23]: 8.1 h | AUC(0-inf) [24]: 8.44 µM·h
SMILES: COCCCOc1cc2c(cc1COC)-c1cc(=O)c(C(=O)O)cn1N1[C@@H]2CCC1(C)C
